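Growth conditions: 96-well plates. Treatment: test compound, 48 hours, 5 concentrations. Analysis: linear interpolation between bracketing concentrations; unreached endpoints set to highest concentration. GI50 is the concentration that inhibits growth by half. At the TGI there is no net growth.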 Where a SMILES comes first, the peptide text is derived from it.
Assays:
Assay in all cases: inhibition of tumour cell growth, NCI panel, 48 h
MCF7 breast = system: MCF7 breast
NCI-H23 lung = system: NCI-H23 lung
OVCAR-5 ovarian = system: OVCAR-5 ovarian
OVCAR-3 ovarian = system: OVCAR-3 ovarian
HT29 colon = system: HT29 colon
ACHN renal = system: ACHN renal
DU-145 prostate = system: DU-145 prostate
U251 CNS = system: U251 CNS
MALME-3M melanoma = system: MALME-3M melanoma
SK-MEL-2 melanoma = system: SK-MEL-2 melanoma

| Structure (SMILES) | TGI (MCF7 breast) | TGI (NCI-H23 lung) | TGI (OVCAR-5 ovarian) | TGI (OVCAR-3 ovarian) | TGI (HT29 colon) | TGI (ACHN renal) | TGI (DU-145 prostate) | TGI (U251 CNS) | TGI (MALME-3M melanoma) | TGI (SK-MEL-2 melanoma) | GI50 (OVCAR-5 ovarian) | GI50 (OVCAR-3 ovarian) | GI50 (U251 CNS) | GI50 (SK-MEL-2 melanoma) |
| --- | --- | --- | --- | --- | --- | --- | --- | --- | --- | --- | --- | --- | --- | --- |
| CCCCCCCCCCCCCC1=C(O)C(=O)C(CC2=C(O)C(=O)C(CCCCCCCCCCCCC)=C(O)C2=O)=C(O)C1=O | > 100 µM | > 100 µM | > 100 µM | > 100 µM | > 100 µM | > 100 µM | > 100 µM | > 100 µM | > 100 µM | > 100 µM | – | – | – | – |
| CC[C@@]1(O)C(=O)OCc2c1cc1n(c2=O)Cc2cc3ccccc3nc2-1 | 0.203 µM | 0.0928 µM | 1.04 µM | 0.726 µM | 0.839 µM | 0.191 µM | 0.0605 µM | 0.769 µM | 2.11 µM | 1.22 µM | 0.111 µM | 0.214 µM | < 0.0129 µM | 0.34 µM |
| C=C1C(=O)O[C@@H]2/C=C(\C)CC/C=C(\C)CC[C@@]12O | 14.5 µM | 4.32 µM | 25.8 µM | 6.43 µM | 10.9 µM | 3.36 µM | 4.93 µM | 19.7 µM | 3.05 µM | 25.7 µM | – | – | – | – |
| COc1ccccc1CC(C)N (stereo not given) | – | > 100 µM | > 100 µM | > 100 µM | > 100 µM | > 100 µM | – | > 100 µM | > 100 µM | > 100 µM | – | – | – | – |
| CCN1c2cc(Br)cc3[nH]c(=O)n(c23)CCC1C (stereo not given) | 54.5 µM | 53.2 µM | 49.9 µM | 28.9 µM | 31.6 µM | 63.5 µM | 36 µM | 28.6 µM | 56.1 µM | 31.8 µM | – | – | – | – |
| Nc1[nH]c(=S)nc2nc3c(c(-c4ccccc4)c12)CCCC3 | > 100 µM | > 100 µM | > 100 µM | > 100 µM | > 100 µM | > 100 µM | > 100 µM | > 100 µM | > 100 µM | – | – | – | – | – |
| O=C(CSCC(=O)N/N=C/c1ccccc1)N/N=C\c1ccccc1 | > 100 µM | > 100 µM | > 100 µM | > 100 µM | > 100 µM | > 100 µM | > 100 µM | > 100 µM | > 100 µM | > 100 µM | – | – | – | – |
| CCCCCCCCCCCCCCCCCCNc1ccn(C2OC(CO)C(OP(=O)(O)OCC(O)COP(=O)(O)OCC3OC(n4cc(F)c(NCCCCCCCCCCCCCCCCCC)nc4=O)CC3O)C2O)c(=O)n1 (stereo not given) | > 50 µM | > 50 µM | > 50 µM | > 50 µM | > 50 µM | > 50 µM | > 50 µM | > 50 µM | > 50 µM | > 50 µM | – | – | – | – |
| O=C(Oc1c(Cl)cc(C2(c3cc(Cl)c(OC(=O)c4ccccc4)c(Cl)c3)CCCCC2)cc1Cl)c1ccccc1 | 25.2 µM | 23.4 µM | 27.4 µM | 27.9 µM | 30 µM | 17.6 µM | 36.7 µM | 26.8 µM | – | 23.9 µM | – | – | – | – |
| OC[C@H]1NC[C@@H](O)[C@@H](O)[C@H]1O | > 100 µM | > 100 µM | > 100 µM | > 100 µM | > 100 µM | – | – | > 100 µM | > 100 µM | > 100 µM | – | – | – | – |
| CC(C)(C)OC(=O)N1C(OP(=O)(Oc2ccccc2)Oc2ccccc2)=CSc2ccccc21 | > 100 µM | > 100 µM | > 100 µM | > 100 µM | > 100 µM | > 100 µM | > 100 µM | > 100 µM | 88.1 µM | 43.7 µM | – | – | – | – |
| CC(C)CCCC(C)[C@H]1CC[C@H]2n3c(nc4ccccc43)CCC[C@]12C (stereo not given in full) | 28.5 µM | 34.4 µM | – | 39 µM | 26.4 µM | – | 58.5 µM | 42.6 µM | 46.1 µM | 35.5 µM | – | – | – | – |
| CCc1n[nH]c(=O)n1/N=C(\C)c1ccc([N+](=O)[O-])cc1 | > 100 µM | > 100 µM | > 100 µM | > 100 µM | > 100 µM | – | > 100 µM | > 100 µM | – | > 100 µM | – | – | – | – |
| O=C(NC(Cc1ccc(Br)cc1)C(=O)O)c1ccc(I)cc1 (stereo not given) | > 100 µM | > 100 µM | > 100 µM | > 100 µM | > 100 µM | – | – | > 100 µM | > 100 µM | > 100 µM | – | – | – | – |
| NC(=O)C1CCCN1C(=O)C(N)Cc1ccccc1 (stereo not drawn) (H-Phe-Pro-NH2; configuration not given here) | > 100 µM | – | > 100 µM | > 100 µM | > 100 µM | > 100 µM | > 100 µM | > 100 µM | > 100 µM | – | – | – | – | – |
| Clc1cc(Cl)c2cc3cccc[n+]3cc2c1Cl | 31.9 µM | 30.4 µM | 38.7 µM | 26.8 µM | 30.7 µM | 31.7 µM | 34 µM | 34.7 µM | 53.7 µM | 30.1 µM | – | – | – | – |
| Nc1ccc(O)c2c1C(=O)c1c(N)ccc(O)c1C2=O | – | > 100 µM | > 100 µM | > 100 µM | – | > 100 µM | – | > 100 µM | > 100 µM | > 100 µM | – | – | – | – |
| CN(C)CCNC(=O)c1cc(Cl)cc2cc3ccccc3nc12 | 4.53 µM | 3.42 µM | 1.97 µM | 16 µM | 2.41 µM | – | – | 8.4 µM | 14.9 µM | 3.76 µM | – | – | – | – |
